Source: the supplement of paper PMC12463676, “Small-molecule dissolution of stress granules by redox modulation benefits ALS models” (Nature Chemical Biology, 2025)

Tests used:
potassium arsenate = compound: O=[As]([O-])(O)O.[K+] [potassium arsenate]; assay: thermal stability z-score vs DMSO; higher = more thermally stabilized by treatment; conditions: HeLa; arsenate concentration 1 mM
Experimental: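 Cellular thermal proteome profiling in HeLa cells treated with 1 mM arsenate for 1 h (DMSO pretreatment), heated to ten temperatures (37-66.3 °C). Soluble protein was quantified by TMT mass spectrometry relative to DMSO controls; the thermal stability score was transformed to a z-score; mean of n = 3 experiments.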

lipoamide = compound: NC(=O)CCCCC1CCSS1 [lipoamide]; assay: as above; conditions: HeLa, lipoamide concentration 100 µM
Experimental: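 Cellular thermal proteome profiling in HeLa cells. Cells were treated with 100 µM lipoamide for 1 h, with or without 1 mM arsenate for a further 1 h, then heated to ten temperatures (37-66.3 °C), and soluble protein was quantified by TMT mass spectrometry relative to 0.1% DMSO controls. The thermal stability score (sum of log2 fold changes minus the abundance score) was transformed to a z-score; mean of n = 3 experiments.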

[1] = arsenate co-treatment: 1 mM arsenate 1 h
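Note: each temperature applied for 3 min, abundance score taken as mean log2 fold change at the two lowest temperatures, z-score obtained by mean subtraction and division by SD.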

TCEA1 (UniProt P23193)
thermal stability z-score (potassium arsenate): -0.117
thermal stability z-score (lipoamide; [1]): 0.138
thermal stability z-score (lipoamide; arsenate co-treatment: none): 0.297

PTMS (UniProt P20962)
UniProt P20962, sequence (P20962 whole entry): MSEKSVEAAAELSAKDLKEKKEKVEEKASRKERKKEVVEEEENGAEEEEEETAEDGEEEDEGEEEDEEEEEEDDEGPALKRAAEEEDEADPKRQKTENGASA
thermal stability z-score (potassium arsenate): -0.629
thermal stability z-score (lipoamide; [1]): 0.606
thermal stability z-score (lipoamide; arsenate co-treatment: none): 0.808

DSTN (UniProt P60981)
thermal stability z-score (potassium arsenate): -1.22
thermal stability z-score (lipoamide; [1]): 0.471
thermal stability z-score (lipoamide; arsenate co-treatment: none): 0.0123

GPN3 (UniProt Q9UHW5)
thermal stability z-score (potassium arsenate): -0.524
thermal stability z-score (lipoamide; [1]): -0.0577
thermal stability z-score (lipoamide; arsenate co-treatment: none): -0.282

UBE2H (UniProt P62256)
UniProt P62256, sequence (P62256 whole entry): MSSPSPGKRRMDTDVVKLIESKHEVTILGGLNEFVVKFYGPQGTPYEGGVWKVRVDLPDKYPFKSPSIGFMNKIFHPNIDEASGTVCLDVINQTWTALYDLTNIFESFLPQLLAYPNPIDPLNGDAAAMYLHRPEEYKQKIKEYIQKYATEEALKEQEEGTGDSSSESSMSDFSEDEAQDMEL
thermal stability z-score (potassium arsenate): 0.295
thermal stability z-score (lipoamide; [1]): 0.213
thermal stability z-score (lipoamide; arsenate co-treatment: none): -0.108

H1F0 (UniProt P07305)
UniProt P07305, sequence (P07305 whole entry): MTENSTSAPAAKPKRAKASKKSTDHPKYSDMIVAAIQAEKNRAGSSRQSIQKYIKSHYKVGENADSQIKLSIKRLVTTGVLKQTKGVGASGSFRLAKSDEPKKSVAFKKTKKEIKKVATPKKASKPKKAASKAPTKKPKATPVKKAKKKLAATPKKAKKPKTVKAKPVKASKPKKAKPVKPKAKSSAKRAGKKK
thermal stability z-score (potassium arsenate): -0.062
thermal stability z-score (lipoamide; [1]): 0.135
thermal stability z-score (lipoamide; arsenate co-treatment: none): -0.22

MAPRE3 (UniProt Q9UPY8)
UniProt Q9UPY8, sequence (Q9UPY8 whole entry): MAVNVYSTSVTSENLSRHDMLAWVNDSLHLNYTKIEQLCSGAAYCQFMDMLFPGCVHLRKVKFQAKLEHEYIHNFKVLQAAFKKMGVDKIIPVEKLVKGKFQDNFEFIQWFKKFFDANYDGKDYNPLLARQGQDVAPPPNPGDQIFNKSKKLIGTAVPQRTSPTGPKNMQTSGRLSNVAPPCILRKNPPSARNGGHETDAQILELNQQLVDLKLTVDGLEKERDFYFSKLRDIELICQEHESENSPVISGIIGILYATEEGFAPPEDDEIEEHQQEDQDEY
thermal stability z-score (potassium arsenate): -0.102
thermal stability z-score (lipoamide; [1]): 0.142
thermal stability z-score (lipoamide; arsenate co-treatment: none): -0.216

EIF2AK1 (UniProt Q9BQI3)
UniProt Q9BQI3, sequence (Q9BQI3 whole entry): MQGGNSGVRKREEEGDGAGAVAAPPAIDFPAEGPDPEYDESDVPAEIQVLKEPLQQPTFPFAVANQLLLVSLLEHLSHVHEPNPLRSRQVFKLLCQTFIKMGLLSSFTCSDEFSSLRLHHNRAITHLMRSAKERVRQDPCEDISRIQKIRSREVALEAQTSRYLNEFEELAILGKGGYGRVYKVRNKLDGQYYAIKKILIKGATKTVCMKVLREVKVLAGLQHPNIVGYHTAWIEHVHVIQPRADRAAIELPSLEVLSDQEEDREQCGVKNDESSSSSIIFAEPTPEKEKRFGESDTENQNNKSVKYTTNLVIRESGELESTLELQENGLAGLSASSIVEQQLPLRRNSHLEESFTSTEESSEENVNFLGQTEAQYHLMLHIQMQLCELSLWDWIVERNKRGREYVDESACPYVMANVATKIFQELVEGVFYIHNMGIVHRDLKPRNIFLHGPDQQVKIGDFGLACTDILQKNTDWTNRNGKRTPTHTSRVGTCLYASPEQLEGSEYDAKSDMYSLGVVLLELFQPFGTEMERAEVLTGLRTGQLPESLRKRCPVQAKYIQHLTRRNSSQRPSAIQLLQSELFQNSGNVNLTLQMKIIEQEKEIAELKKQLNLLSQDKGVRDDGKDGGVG
thermal stability z-score (potassium arsenate): 0.583
thermal stability z-score (lipoamide; [1]): -0.867
thermal stability z-score (lipoamide; arsenate co-treatment: none): 0.23

STAT5B (UniProt P51692)
thermal stability z-score (potassium arsenate): 0.0458
thermal stability z-score (lipoamide; [1]): -0.378
thermal stability z-score (lipoamide; arsenate co-treatment: none): -0.11

DHX15 (UniProt O43143)
thermal stability z-score (potassium arsenate): 0.00808
thermal stability z-score (lipoamide; [1]): -0.319
thermal stability z-score (lipoamide; arsenate co-treatment: none): -0.389

EXOSC2 (UniProt Q13868)
thermal stability z-score (potassium arsenate): -0.593
thermal stability z-score (lipoamide; [1]): 0.567
thermal stability z-score (lipoamide; arsenate co-treatment: none): 0.234

NCOA7 (UniProt Q8NI08)
thermal stability z-score (potassium arsenate): 0.0655
thermal stability z-score (lipoamide; [1]): -0.676
thermal stability z-score (lipoamide; arsenate co-treatment: none): -0.721

SLTM (UniProt Q9NWH9)
thermal stability z-score (potassium arsenate): -0.561
thermal stability z-score (lipoamide; [1]): 0.712
thermal stability z-score (lipoamide; arsenate co-treatment: none): -0.493

PTGR2 (UniProt Q8N8N7)
thermal stability z-score (potassium arsenate): 0.744
thermal stability z-score (lipoamide; [1]): 2.64
thermal stability z-score (lipoamide; arsenate co-treatment: none): 1.03

BRAT1 (UniProt Q6PJG6)
thermal stability z-score (potassium arsenate): 0.562
thermal stability z-score (lipoamide; [1]): -0.267
thermal stability z-score (lipoamide; arsenate co-treatment: none): -0.15

PSMD3 (UniProt O43242)
thermal stability z-score (potassium arsenate): 0.115
thermal stability z-score (lipoamide; [1]): 0.084
thermal stability z-score (lipoamide; arsenate co-treatment: none): 0.0492

PYCR2 (UniProt Q96C36)
UniProt Q96C36, sequence (Q96C36 whole entry): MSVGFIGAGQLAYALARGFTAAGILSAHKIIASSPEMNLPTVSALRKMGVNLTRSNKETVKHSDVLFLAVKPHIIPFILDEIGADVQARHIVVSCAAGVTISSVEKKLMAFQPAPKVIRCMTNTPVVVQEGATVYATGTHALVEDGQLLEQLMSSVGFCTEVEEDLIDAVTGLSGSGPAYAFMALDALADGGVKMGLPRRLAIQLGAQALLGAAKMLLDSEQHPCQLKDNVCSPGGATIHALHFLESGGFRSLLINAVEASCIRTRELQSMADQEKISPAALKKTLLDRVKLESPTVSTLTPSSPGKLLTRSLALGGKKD
thermal stability z-score (potassium arsenate): -0.765
thermal stability z-score (lipoamide; [1]): 0.43
thermal stability z-score (lipoamide; arsenate co-treatment: none): -0.4

MTRR (UniProt Q9UBK8)
thermal stability z-score (potassium arsenate): 0.111
thermal stability z-score (lipoamide; [1]): 0.00117
thermal stability z-score (lipoamide; arsenate co-treatment: none): -0.531

IRF2BP2 (UniProt Q7Z5L9)
thermal stability z-score (potassium arsenate): -2.51
thermal stability z-score (lipoamide; [1]): 0.371
thermal stability z-score (lipoamide; arsenate co-treatment: none): -0.0192

LIPA (UniProt P38571)
thermal stability z-score (potassium arsenate): 0.119
thermal stability z-score (lipoamide; [1]): -0.674
thermal stability z-score (lipoamide; arsenate co-treatment: none): -0.352

EIF6 (UniProt P56537)
thermal stability z-score (potassium arsenate): -2.24
thermal stability z-score (lipoamide; [1]): -0.689
thermal stability z-score (lipoamide; arsenate co-treatment: none): -0.681

LMNA (UniProt P02545)
thermal stability z-score (potassium arsenate): -0.488
thermal stability z-score (lipoamide; [1]): 0.567
thermal stability z-score (lipoamide; arsenate co-treatment: none): 0.493

ACSF2 (UniProt Q96CM8)
thermal stability z-score (potassium arsenate): -0.301
thermal stability z-score (lipoamide; [1]): -0.634
thermal stability z-score (lipoamide; arsenate co-treatment: none): -0.524

COG4 (UniProt Q9H9E3)
thermal stability z-score (potassium arsenate): -0.419
thermal stability z-score (lipoamide; [1]): -0.919
thermal stability z-score (lipoamide; arsenate co-treatment: none): -1.44

RHPN2 (UniProt Q8IUC4)
thermal stability z-score (potassium arsenate): 0.193
thermal stability z-score (lipoamide; [1]): -0.97
thermal stability z-score (lipoamide; arsenate co-treatment: none): -1.32

ERLIN2 (UniProt O94905)
UniProt O94905, sequence (O94905 whole entry): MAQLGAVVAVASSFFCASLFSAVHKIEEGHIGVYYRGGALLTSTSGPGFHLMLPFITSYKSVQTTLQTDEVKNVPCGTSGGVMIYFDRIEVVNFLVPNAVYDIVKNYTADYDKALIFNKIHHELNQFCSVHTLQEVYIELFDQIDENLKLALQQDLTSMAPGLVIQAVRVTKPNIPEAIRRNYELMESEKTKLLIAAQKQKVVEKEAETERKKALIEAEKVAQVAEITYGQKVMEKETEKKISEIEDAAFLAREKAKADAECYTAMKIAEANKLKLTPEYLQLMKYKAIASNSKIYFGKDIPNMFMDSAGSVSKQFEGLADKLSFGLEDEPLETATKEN
thermal stability z-score (potassium arsenate): -0.0487
thermal stability z-score (lipoamide; [1]): -1.05
thermal stability z-score (lipoamide; arsenate co-treatment: none): -0.752

NLN (UniProt Q9BYT8)
thermal stability z-score (potassium arsenate): -0.079
thermal stability z-score (lipoamide; [1]): -0.0488
thermal stability z-score (lipoamide; arsenate co-treatment: none): 0.000162

MBP (UniProt P02686)
UniProt P02686, sequence (P02686 whole entry): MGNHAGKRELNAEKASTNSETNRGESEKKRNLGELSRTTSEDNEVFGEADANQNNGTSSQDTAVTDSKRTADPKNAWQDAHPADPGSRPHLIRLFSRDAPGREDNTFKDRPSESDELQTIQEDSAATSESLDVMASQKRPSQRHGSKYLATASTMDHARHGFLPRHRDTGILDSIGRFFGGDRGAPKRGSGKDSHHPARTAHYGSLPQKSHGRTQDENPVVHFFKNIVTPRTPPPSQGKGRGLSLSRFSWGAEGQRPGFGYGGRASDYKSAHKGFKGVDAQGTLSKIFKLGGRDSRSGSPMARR
thermal stability z-score (potassium arsenate): 0.222
thermal stability z-score (lipoamide; [1]): 1.96
thermal stability z-score (lipoamide; arsenate co-treatment: none): 0.197

QPCTL (UniProt Q9NXS2)
thermal stability z-score (potassium arsenate): -0.256
thermal stability z-score (lipoamide; [1]): -0.434
thermal stability z-score (lipoamide; arsenate co-treatment: none): -0.457

METTL21A (UniProt Q8WXB1)
thermal stability z-score (potassium arsenate): 0.26
thermal stability z-score (lipoamide; [1]): 0.425
thermal stability z-score (lipoamide; arsenate co-treatment: none): -0.307

MRPL55 (UniProt Q7Z7F7)
thermal stability z-score (potassium arsenate): -0.38
thermal stability z-score (lipoamide; [1]): 0.0563
thermal stability z-score (lipoamide; arsenate co-treatment: none): 0.0521

CCT4 (UniProt P50991)
UniProt P50991, sequence (P50991 whole entry): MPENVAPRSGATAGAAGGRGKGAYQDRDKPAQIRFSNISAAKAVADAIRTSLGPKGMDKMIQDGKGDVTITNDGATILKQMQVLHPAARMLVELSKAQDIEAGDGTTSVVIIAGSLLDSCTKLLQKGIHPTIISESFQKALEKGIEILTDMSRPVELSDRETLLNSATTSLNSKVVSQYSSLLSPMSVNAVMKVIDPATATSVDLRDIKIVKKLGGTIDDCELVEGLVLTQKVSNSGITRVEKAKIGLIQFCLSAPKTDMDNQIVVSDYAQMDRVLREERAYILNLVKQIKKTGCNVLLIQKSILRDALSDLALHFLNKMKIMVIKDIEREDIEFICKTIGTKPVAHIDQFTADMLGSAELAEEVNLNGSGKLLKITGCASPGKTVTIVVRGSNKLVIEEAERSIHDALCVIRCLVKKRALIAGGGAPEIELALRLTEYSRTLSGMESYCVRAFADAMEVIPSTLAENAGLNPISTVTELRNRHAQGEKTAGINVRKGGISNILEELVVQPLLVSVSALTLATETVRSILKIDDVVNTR
thermal stability z-score (potassium arsenate): -0.223
thermal stability z-score (lipoamide; [1]): -0.0959
thermal stability z-score (lipoamide; arsenate co-treatment: none): -0.205

ELOVL5 (UniProt Q9NYP7)
thermal stability z-score (potassium arsenate): 0.0723
thermal stability z-score (lipoamide; [1]): -0.00466
thermal stability z-score (lipoamide; arsenate co-treatment: none): -0.551

NDUFV3 (UniProt P56181)
UniProt P56181, sequence (P56181 whole entry): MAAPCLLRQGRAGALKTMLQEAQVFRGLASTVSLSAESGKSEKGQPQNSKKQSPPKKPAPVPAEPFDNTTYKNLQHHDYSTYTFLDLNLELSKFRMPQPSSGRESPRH
thermal stability z-score (potassium arsenate): -0.157
thermal stability z-score (lipoamide; [1]): 0.238
thermal stability z-score (lipoamide; arsenate co-treatment: none): 0.504

SLC7A11 (UniProt Q9UPY5)
thermal stability z-score (potassium arsenate): -0.0447
thermal stability z-score (lipoamide; [1]): 0.242
thermal stability z-score (lipoamide; arsenate co-treatment: none): 0.155

NRDC (UniProt O43847)
thermal stability z-score (potassium arsenate): 0.364
thermal stability z-score (lipoamide; [1]): -0.0123
thermal stability z-score (lipoamide; arsenate co-treatment: none): -0.0343

IDH2 (UniProt P48735)
UniProt P48735, sequence (P48735 whole entry): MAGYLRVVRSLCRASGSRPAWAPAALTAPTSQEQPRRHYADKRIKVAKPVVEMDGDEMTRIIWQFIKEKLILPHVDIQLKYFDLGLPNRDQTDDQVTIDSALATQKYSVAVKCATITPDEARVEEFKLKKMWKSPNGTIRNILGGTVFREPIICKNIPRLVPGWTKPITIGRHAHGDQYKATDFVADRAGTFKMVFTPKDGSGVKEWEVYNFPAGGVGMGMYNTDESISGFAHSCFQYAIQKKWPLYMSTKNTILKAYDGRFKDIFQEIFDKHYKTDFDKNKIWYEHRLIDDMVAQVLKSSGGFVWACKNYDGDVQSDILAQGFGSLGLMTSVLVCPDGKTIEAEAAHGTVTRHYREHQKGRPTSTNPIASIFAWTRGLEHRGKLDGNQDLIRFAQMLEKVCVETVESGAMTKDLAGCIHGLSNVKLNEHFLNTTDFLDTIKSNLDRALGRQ
thermal stability z-score (potassium arsenate): -0.911
thermal stability z-score (lipoamide; [1]): -0.129
thermal stability z-score (lipoamide; arsenate co-treatment: none): 0.0632

LSS (UniProt P48449)
thermal stability z-score (potassium arsenate): -0.00616
thermal stability z-score (lipoamide; [1]): 0.724
thermal stability z-score (lipoamide; arsenate co-treatment: none): 0.345

GNB2 (UniProt P62879)
thermal stability z-score (potassium arsenate): -0.44
thermal stability z-score (lipoamide; [1]): 0.297
thermal stability z-score (lipoamide; arsenate co-treatment: none): 1.21

CTR9 (UniProt Q6PD62)
thermal stability z-score (potassium arsenate): 0.243
thermal stability z-score (lipoamide; [1]): 0.156
thermal stability z-score (lipoamide; arsenate co-treatment: none): 0.203

VGLL4 (UniProt Q14135)
thermal stability z-score (potassium arsenate): -1.46
thermal stability z-score (lipoamide; [1]): -0.0828
thermal stability z-score (lipoamide; arsenate co-treatment: none): 0.229

TCP1 (UniProt P17987)
thermal stability z-score (potassium arsenate): -0.229
thermal stability z-score (lipoamide; [1]): -0.0358
thermal stability z-score (lipoamide; arsenate co-treatment: none): -0.0779

RPA1 (UniProt P27694)
thermal stability z-score (potassium arsenate): 0.0213
thermal stability z-score (lipoamide; [1]): -0.6
thermal stability z-score (lipoamide; arsenate co-treatment: none): -0.317

ZFAND1 (UniProt Q8TCF1)
thermal stability z-score (potassium arsenate): -0.247
thermal stability z-score (lipoamide; [1]): 0.233
thermal stability z-score (lipoamide; arsenate co-treatment: none): 0.29

ANKRD52 (UniProt Q8NB46)
UniProt Q8NB46, sequence (Q8NB46 whole entry): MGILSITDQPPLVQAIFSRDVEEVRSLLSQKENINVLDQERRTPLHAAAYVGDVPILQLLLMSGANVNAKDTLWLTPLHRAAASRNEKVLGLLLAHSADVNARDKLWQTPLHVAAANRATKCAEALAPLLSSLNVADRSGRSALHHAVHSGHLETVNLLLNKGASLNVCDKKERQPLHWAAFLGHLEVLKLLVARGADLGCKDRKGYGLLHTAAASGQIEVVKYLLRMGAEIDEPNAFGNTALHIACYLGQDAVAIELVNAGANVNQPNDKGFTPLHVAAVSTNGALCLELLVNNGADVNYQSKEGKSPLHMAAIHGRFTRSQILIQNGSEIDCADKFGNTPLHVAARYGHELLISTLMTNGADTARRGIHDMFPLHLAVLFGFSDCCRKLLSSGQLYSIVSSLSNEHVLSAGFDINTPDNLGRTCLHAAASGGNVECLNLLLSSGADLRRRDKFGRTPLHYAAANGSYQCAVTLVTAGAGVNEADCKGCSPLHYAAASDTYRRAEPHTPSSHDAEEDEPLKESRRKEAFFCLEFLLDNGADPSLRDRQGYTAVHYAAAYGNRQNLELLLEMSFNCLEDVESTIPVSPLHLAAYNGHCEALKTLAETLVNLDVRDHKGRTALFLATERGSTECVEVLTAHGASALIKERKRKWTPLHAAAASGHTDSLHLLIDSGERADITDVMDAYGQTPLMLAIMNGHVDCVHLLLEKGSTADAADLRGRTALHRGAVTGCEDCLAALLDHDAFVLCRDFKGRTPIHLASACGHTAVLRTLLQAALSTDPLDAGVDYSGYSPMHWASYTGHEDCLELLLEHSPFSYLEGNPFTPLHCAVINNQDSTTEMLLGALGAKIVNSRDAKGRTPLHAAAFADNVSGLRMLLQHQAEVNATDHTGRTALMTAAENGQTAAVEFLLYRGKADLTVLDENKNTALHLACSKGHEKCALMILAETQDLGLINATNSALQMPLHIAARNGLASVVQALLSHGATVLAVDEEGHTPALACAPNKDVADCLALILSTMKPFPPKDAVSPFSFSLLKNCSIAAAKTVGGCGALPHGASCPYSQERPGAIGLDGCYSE
thermal stability z-score (potassium arsenate): -0.372
thermal stability z-score (lipoamide; [1]): -0.69
thermal stability z-score (lipoamide; arsenate co-treatment: none): -0.0975

SPIN1 (UniProt Q9Y657)
thermal stability z-score (potassium arsenate): -0.0902
thermal stability z-score (lipoamide; [1]): 0.0956
thermal stability z-score (lipoamide; arsenate co-treatment: none): 0.212

HSP90AB1 (UniProt P08238)
thermal stability z-score (potassium arsenate): 0.108
thermal stability z-score (lipoamide; [1]): -0.421
thermal stability z-score (lipoamide; arsenate co-treatment: none): -0.166

MACF1
thermal stability z-score (potassium arsenate): -0.308
thermal stability z-score (lipoamide; [1]): -0.0421
thermal stability z-score (lipoamide; arsenate co-treatment: none): -0.0441

MAP2K6 (UniProt P52564)
thermal stability z-score (potassium arsenate): -0.021
thermal stability z-score (lipoamide; [1]): -0.0718
thermal stability z-score (lipoamide; arsenate co-treatment: none): 0.061

MRPL18 (UniProt Q9H0U6)
thermal stability z-score (potassium arsenate): -0.799
thermal stability z-score (lipoamide; [1]): -0.339
thermal stability z-score (lipoamide; arsenate co-treatment: none): -0.0505

INF2 (UniProt Q27J81)
thermal stability z-score (potassium arsenate): 0.0741
thermal stability z-score (lipoamide; [1]): -0.674
thermal stability z-score (lipoamide; arsenate co-treatment: none): -0.257

CRNKL1 (UniProt Q9BZJ0)
thermal stability z-score (potassium arsenate): -0.00401
thermal stability z-score (lipoamide; [1]): 0.288
thermal stability z-score (lipoamide; arsenate co-treatment: none): 0.156

DCAF7 (UniProt P61962)
UniProt P61962, sequence (P61962 whole entry): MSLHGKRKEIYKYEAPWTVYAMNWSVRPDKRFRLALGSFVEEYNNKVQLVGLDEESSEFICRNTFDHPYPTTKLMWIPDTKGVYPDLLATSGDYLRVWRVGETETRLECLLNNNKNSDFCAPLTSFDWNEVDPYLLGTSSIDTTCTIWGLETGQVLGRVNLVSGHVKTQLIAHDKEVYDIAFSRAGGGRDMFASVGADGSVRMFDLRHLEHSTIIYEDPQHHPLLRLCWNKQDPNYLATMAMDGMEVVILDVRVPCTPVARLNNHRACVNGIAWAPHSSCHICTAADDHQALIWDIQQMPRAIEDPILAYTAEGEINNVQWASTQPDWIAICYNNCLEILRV
thermal stability z-score (potassium arsenate): 1.2
thermal stability z-score (lipoamide; [1]): 0.278
thermal stability z-score (lipoamide; arsenate co-treatment: none): 0.939

CLPX (UniProt O76031)
thermal stability z-score (potassium arsenate): 0.139
thermal stability z-score (lipoamide; [1]): -0.306
thermal stability z-score (lipoamide; arsenate co-treatment: none): -0.172

UFC1 (UniProt Q9Y3C8)
thermal stability z-score (potassium arsenate): 0.281
thermal stability z-score (lipoamide; [1]): 0.984
thermal stability z-score (lipoamide; arsenate co-treatment: none): 0.773
